Data as given in the NIST ThermoML archive (doi:10.1016/j.jct.2018.08.004).
± gives the expanded uncertainty stated by the source.

Key:
[1] = Maximal bubble pressure
[2] = xn = mol fraction of the nth substance listed; conditions: x2 = 0; for surface tension liquid-gas: Maximal bubble pressure; for mass density: 100 kPa, Liquid, Vibrating tube method

CCO [ethanol]
[1]
Conditions	surface tension liquid-gas [mN/m]
288.15 K	23.3 ± 0.8
293.15 K	22.7 ± 0.8
298.15 K	22.2 ± 0.8
303.15 K	21.6 ± 0.7
308.15 K	21.1 ± 0.7
313.15 K	20.7 ± 0.7
318.15 K	20 ± 0.7

CCO [ethanol] + CCCC[n+]1ccccc1.N#C[N-]C#N
[2]
Conditions	mass density [kg/m3]	surface tension liquid-gas [mN/m]
288.15 K	793.91 ± 2	23.3 ± 0.8
293.15 K	789.66 ± 2	22.7 ± 0.8
298.15 K	785.73 ± 2	22.2 ± 0.8
303.15 K	781.05 ± 2	21.6 ± 0.7
308.15 K	776.7 ± 1.9	21.1 ± 0.7
313.15 K	772.31 ± 1.9	20.7 ± 0.7
318.15 K	767.88 ± 1.9	20 ± 0.7

CCCO [propan-1-ol]
[1]
Conditions	surface tension liquid-gas [mN/m]
288.15 K	24.5 ± 0.8
293.15 K	23.9 ± 0.8
298.15 K	23.4 ± 0.8
303.15 K	23 ± 0.8
308.15 K	22.5 ± 0.8
313.15 K	22.1 ± 0.7
318.15 K	21.6 ± 0.7

CCCO [propan-1-ol] + CCCC[n+]1ccccc1.N#C[N-]C#N
[2]
Conditions	mass density [kg/m3]	surface tension liquid-gas [mN/m]
288.15 K	807.55 ± 2	24.5 ± 0.8
293.15 K	803.59 ± 2	23.9 ± 0.8
298.15 K	799.58 ± 2	23.4 ± 0.8
303.15 K	795.55 ± 2	23 ± 0.8
308.15 K	791.47 ± 2	22.5 ± 0.8
313.15 K	787.36 ± 2	22.1 ± 0.7
318.15 K	783.2 ± 2	21.6 ± 0.7

CC(C)O [propan-2-ol]
[1]
Conditions	surface tension liquid-gas [mN/m]
288.15 K	22.2 ± 0.8
293.15 K	21.7 ± 0.7
298.15 K	21.2 ± 0.7
303.15 K	20.8 ± 0.7
308.15 K	20.3 ± 0.7
313.15 K	19.9 ± 0.7
318.15 K	19.4 ± 0.7

CC(C)O [propan-2-ol] + CCCC[n+]1ccccc1.N#C[N-]C#N
[2]
Conditions	mass density [kg/m3]	surface tension liquid-gas [mN/m]
288.15 K	789.41 ± 2	22.2 ± 0.8
293.15 K	785.29 ± 2	21.7 ± 0.7
298.15 K	781.08 ± 2	21.2 ± 0.7
303.15 K	776.81 ± 1.9	20.8 ± 0.7
308.15 K	772.46 ± 1.9	20.3 ± 0.7
313.15 K	768.02 ± 1.9	19.9 ± 0.7
318.15 K	763.48 ± 1.9	19.4 ± 0.7
